Results on 48 compounds are retold here after the PolyMetriX glass transition set.

Compound `*C(=O)Nc1ccc(Oc2ccc(C(C)(C)c3ccc(Oc4ccc(NC(=O)c5ccc(N6C(=O)c7ccc(*)cc7C6=O)cc5)cc4)cc3)cc2)cc1` (repeat unit) returned a glass transition temperature of 216.00 °C.
As to `*C(=O)Nc1ccc(Oc2ccc(C(C)(C)c3ccc(Oc4ccc(NC(=O)c5ccc6c(c5)C(=O)N(c5ccc(Oc7ccc8ccc(Oc9ccc(N%10C(=O)c%11ccc(*)cc%11C%10=O)cc9)cc8c7)cc5)C6=O)cc4)cc3)cc2)cc1` (repeat unit), the glass transition temperature was 250.00 °C.
With `*C(=O)Nc1ccc(Oc2ccc(C(C)(C)c3ccc(Oc4ccc(NC(=O)c5ccc6c(c5)C(=O)N(c5ccc(Oc7cccc8c(Oc9ccc(N%10C(=O)c%11ccc(*)cc%11C%10=O)cc9)cccc78)cc5)C6=O)cc4)cc3)cc2)cc1` (repeat unit) the figure was 235.00 °C; with `*C(=O)Nc1ccc(Oc2ccc(C(C)(C)c3cccc(C(C)(C)c4ccc(Oc5ccc(N6C(=O)c7ccc(*)cc7C6=O)cc5)cc4)c3)cc2)cc1` (repeat unit), 177.00 °C; with `*C(=O)c1ccc(Oc2ccc(C(C)(C)c3ccc(Oc4ccc(C(=O)c5ccc6c(c5)C(=O)N(c5ccc(Oc7ccc(N8C(=O)c9ccc(*)cc9C8=O)cc7)cc5)C6=O)cc4)cc3)cc2)cc1` (repeat unit), 217.00 °C.
For `*C(=O)c1ccc2ncc(-c3ccc(-c4cnc5ccc(*)cc5n4)cc3)nc2c1` (repeat unit), the glass transition temperature amounted to 318.00 °C.
The compound `*CC(=O)Nc1ccc(Oc2ccc(C(C)(C)c3ccc(Oc4ccc(NC(=O)CN5C(=O)c6ccc(C(c7ccc8c(c7)C(=O)N(*)C8=O)(C(F)(F)F)C(F)(F)F)cc6C5=O)cc4)cc3)cc2)cc1` (repeat unit) had a glass transition temperature of 224.00 °C.
The compound `*Oc1ccc(C(=O)c2ccccc2)c(-c2cc(Oc3ccc(C(C)(C)c4ccc(*)cc4)cc3)ccc2C(=O)c2ccccc2)c1` (repeat unit) had a glass transition temperature of 156.00 °C.
In the case of `*Oc1ccc(C(C)(C)c2ccc(Oc3ccc(*)nn3)cc2)cc1` (repeat unit) it was 180.00 °C; in that of `*Oc1ccc(NC(=O)c2ccc(Oc3ccc(C(C)(C)c4ccc(C(C)(C)c5ccc(Oc6ccc(C(=O)Nc7ccc(Oc8ccc(C(C)(C)c9ccc(*)cc9)cc8)cc7)cc6)cc5)cc4)cc3)cc2)cc1` (repeat unit), 163.00 °C; in that of `*Oc1ccc(Oc2ccc(P(=O)(c3ccccc3)c3ccc(Oc4ccc(Oc5cccc(*)n5)cc4)cc3)cc2)cc1` (repeat unit), 164.00 °C.
`*Oc1ccc(Oc2ccc(S(=O)(=O)c3ccc(Oc4ccc(Oc5cccc(*)n5)cc4)cc3)cc2)cc1` (repeat unit) returned a glass transition temperature of 158.00 °C.
For `*Oc1ccc(P(=O)(c2ccccc2)c2ccc(Oc3ccc(C(C)(C)c4ccc(*)cc4)cc3)cc2)cc1` (repeat unit), the glass transition temperature stood at 199.00 °C.
`*Oc1ccc(P(=O)(c2ccccc2)c2ccc(Oc3ccc(C(c4ccc(*)cc4)(C(F)(F)F)C(F)(F)F)cc3)cc2)cc1` (repeat unit) showed a glass transition temperature of 210.50 °C.
`*Oc1ccc(S(=O)(=O)c2ccc(-c3ccc(S(=O)(=O)c4ccc(*)cc4)cc3)cc2)cc1` (repeat unit) yielded a glass transition temperature of 282.00 °C.
For the compound `*Oc1ccc(S(=O)(=O)c2ccc(Oc3ccc(C(c4ccc(*)cc4)(C(F)(F)F)C(F)(F)F)cc3)cc2)cc1` (repeat unit), the glass transition temperature came out at 199.70 °C.
For `*Oc1ccc(S(=O)(=O)c2ccc(Oc3ccc(C4(c5ccc(*)cc5)CC5CCC4C5)cc3)cc2)cc1` (repeat unit), the glass transition temperature is 250.00 °C.
`*Oc1ccc(S(=O)(=O)c2ccc(Oc3ccc(C4(c5ccc(*)cc5)CCCCC4)cc3)cc2)cc1` (repeat unit) registered a glass transition temperature of 226.00 °C.
With `*Oc1ccc(S(=O)(=O)c2ccc(Oc3ccc(C4(c5ccc(*)cc5)CCCCCC4)cc3)cc2)cc1` (repeat unit) the figure was 247.00 °C; with `*Oc1ccc(S(=O)(=O)c2ccc(Oc3ccc(C4(c5ccc(*)cc5)c5ccccc5-c5ccccc54)cc3)cc2)cc1` (repeat unit), 278.50 °C; with `*Oc1ccc(S(=O)(=O)c2ccc(Oc3ccc(C45CC6CC(CC(c7ccc(*)cc7)(C6)C4)C5)cc3)cc2)cc1` (repeat unit), 242.00 °C.
For the compound `*Oc1ccc(S(=O)(=O)c2ccc(Oc3ccc(S(=O)(=O)c4ccc(-c5ccc(S(=O)(=O)c6ccc(*)cc6)cc5)cc4)cc3)cc2)cc1` (repeat unit), the glass transition temperature was found to be 267.00 °C.
`*Oc1ccc2ccc(Oc3ccc(C(=O)Nc4ccc(Oc5ccc(C(C)(C)c6ccc(C(C)(C)c7ccc(Oc8ccc(NC(=O)c9ccc(*)cc9)cc8)cc7)cc6)cc5)cc4)cc3)cc2c1` (repeat unit): the glass transition temperature was determined as 166.00 °C.
Regarding `*c1ccc(Oc2ccc(C(=O)c3cccc(-c4cccc(C(=O)c5ccc(Oc6ccc(-c7nc(-c8cccc(-c9nc(*)c(-c%10ccccc%10)[nH]9)c8)[nH]c7-c7ccccc7)cc6)cc5)c4)c3)cc2)cc1` (repeat unit), the glass transition temperature amounted to 250.00 °C.
`*c1ccc(Oc2ccc(C(=O)c3cccc(C(=O)c4ccc(Oc5ccc(-c6c7c(c(*)c8ccccc68)C(=O)N(C)C7=O)cc5)cc4)c3)cc2)cc1` (repeat unit) gave a glass transition temperature of 251.00 °C.
For the compound `*c1ccc(Oc2ccc(C(=O)c3cccc(C(=O)c4ccc(Oc5ccc(-c6cc(*)[nH]n6)cc5)cc4)c3)cc2)cc1` (repeat unit), the glass transition temperature came out at 205.00 °C.
`*c1ccc(Oc2ccc(C(C)(C)c3ccc(Oc4ccc(-c5nnc(*)n5-c5ccc(C)cc5)cc4)cc3)cc2)cc1` (repeat unit) registered a glass transition temperature of 205.00 °C.
On to `*c1ccc(Oc2ccc(C(C)(C)c3ccc(Oc4ccc(N5C(=O)c6ccc(Oc7ccc(C(C)(C)c8ccc(Oc9ccc%10c(c9)C(=O)N(*)C%10=O)cc8)cc7)cc6C5=O)cc4)cc3)cc2)cc1` (repeat unit), for which the glass transition temperature was determined as 176.00 °C.
Turning to `*c1ccc(Oc2ccc(C(C)(C)c3ccc(Oc4ccc(N5C(=O)c6ccc(Oc7ccccc7Oc7ccc8c(c7)C(=O)N(*)C8=O)cc6C5=O)cc4C(F)(F)F)cc3)cc2)c(C(F)(F)F)c1` (repeat unit), the glass transition temperature worked out at 192.00 °C.
Compound `*c1ccc(Oc2ccc(C(c3ccc(Oc4ccc(-c5ccc(*)s5)cc4C(F)(F)F)cc3)(C(F)(F)F)C(F)(F)F)cc2)c(C(F)(F)F)c1` (repeat unit) yielded a glass transition temperature of 155.00 °C.
In the case of `*c1ccc(Oc2ccc(C(c3ccc(Oc4ccc(-c5nnc(*)n5-c5ccc(C)cc5)cc4)cc3)(C(F)(F)F)C(F)(F)F)cc2)cc1` (repeat unit) it was 213.00 °C; in that of `*c1ccc(Oc2ccc(C(c3ccc(Oc4ccc(-c5nnc(*)n5-c5ccc(S(C)(=O)=O)cc5)cc4)cc3)(C(F)(F)F)C(F)(F)F)cc2)cc1` (repeat unit), 226.00 °C.
The compound `*c1ccc(Oc2ccc(C(c3ccc(Oc4ccc(N5C(=O)c6ccc7c8c(ccc(c68)C5=O)C(=O)N(*)C7=O)cc4)c(S(=O)(=O)O)c3)(C(F)(F)F)C(F)(F)F)cc2S(=O)(=O)O)cc1` (repeat unit) returned a glass transition temperature of 270.00 °C.
In the case of `*c1ccc(Oc2ccc(C(c3ccc(Oc4ccc(N5C(=O)c6ccc7c8c(ccc(c68)C5=O)C(=O)N(*)C7=O)cc4)cc3)(C(F)(F)F)C(F)(F)F)cc2)cc1` (repeat unit) it was 280.00 °C; in that of `*c1ccc(Oc2ccc(C(c3ccc(Oc4ccc(N5C(=O)CC(=O)N(*)C5=S)cc4)cc3)(C(F)(F)F)C(F)(F)F)cc2)cc1` (repeat unit), 147.00 °C.
The compound `*c1ccc(Oc2ccc(C3(c4ccc(Oc5ccc(-c6ccc(*)s6)cc5C(F)(F)F)cc4)c4ccccc4-c4ccccc43)cc2)c(C(F)(F)F)c1` (repeat unit) yielded a glass transition temperature of 169.00 °C.
In the case of `*c1ccc(Oc2ccc(C3(c4ccc(Oc5ccc(N6C(=O)CC(=O)N(*)C6=S)cc5)cc4)c4ccccc4-c4ccccc43)cc2)cc1` (repeat unit) it was 175.00 °C; in that of `*c1ccc(Oc2ccc(N3C(=O)C4CCC5C(=O)N(*)C(=O)C5C4C3=O)cc2)cc1` (repeat unit), 342.00 °C.
Compound `*c1ccc(Oc2ccc(N3C(=O)N4C(c5ccc(OC)cc5)N(*)C(=O)N4C3c3ccc(OC)cc3)cc2)cc1` (repeat unit) showed a glass transition temperature of 163.00 °C.
Compound `*c1ccc(Oc2ccc(Oc3ccc(N4C(=O)C5CCC6C(=O)N(*)C(=O)C6C5C4=O)cc3)cc2)cc1` (repeat unit) had a glass transition temperature of 274.00 °C.
For the compound `*c1ccc(Oc2ccc(Oc3ccc(N4C(=O)CC(=O)N(*)C4=S)cc3)cc2)cc1` (repeat unit), the glass transition temperature was determined as 157.00 °C.
With `*c1ccc(Oc2ccc(Oc3ccc(Oc4ccc(-n5c(=O)c6cc7c(=O)n(*)c(=O)c7cc6c5=O)cc4)cc3)cc2)cc1` (repeat unit) the figure was 295.00 °C; with `*c1ccc(Oc2ccc(Oc3ccc(P(=O)(c4ccccc4)c4ccc(Oc5ccc(Oc6ccc(-c7nc8ccc(-c9ccc%10nc(*)oc%10c9)cc8o7)cc6)cc5)cc4)cc3)cc2)cc1` (repeat unit), 223.00 °C; with `*c1ccc(Oc2ccc(Oc3ccc(P(=O)(c4ccccc4)c4ccc(Oc5ccc(Oc6ccc(-c7nc8ccccc8nc7*)cc6)cc5)cc4)cc3)cc2)cc1` (repeat unit), 209.00 °C.
`*c1ccc(Oc2ccc(S(=O)(=O)c3ccc(C)cc3)cc2)c(N2C(=O)c3ccc(-c4ccc5c(c4)C(=O)N(*)C5=O)cc3C2=O)c1` (repeat unit) gave a glass transition temperature of 281.00 °C.
Consider `*c1ccc(Oc2ccc(S(=O)(=O)c3ccc(Oc4ccc(-c5c6c(c(*)c7ccccc57)C(=O)N(c5ccc(Cl)cc5)C6=O)cc4)cc3)cc2)cc1` (repeat unit), for which the glass transition temperature was 280.00 °C.
In turn, `*c1ccc(Oc2ccc(S(=O)(=O)c3ccc(Oc4ccc(-c5c6c(c(*)c7ccccc57)C(=O)N(c5cccc(C(F)(F)F)c5)C6=O)cc4)cc3)cc2)cc1` (repeat unit) displayed a glass transition temperature of 280.50 °C.
Take `*c1ccc(Oc2ccc(S(=O)(=O)c3ccc(Oc4ccc(-c5c6c(c(*)c7ccccc57)C(=O)N(c5ccccc5)C6=O)cc4)cc3)cc2)cc1` (repeat unit): the glass transition temperature was determined as 310.00 °C.
